Assay results taken from article PMC4297292 (Cancer Cell, 2015).
pIC50: −log10 of the molar value.

Legend:
[1] = system: patient #2 cells (vemurafenib-resistant melanoma); test: Cell proliferation assay; assay type: cell-based
[2] = system: PLX4720-resistant PDX from patient #1; test: PDX growth; assay type: in vivo, NSG mice; conditions: PLX4720 45 mg/kg, CCT compounds 20 mg/kg daily gavage
[3] = system: MEK, ERK and SRC/SFKs in patient #2 cells; test: pMEK, pERK, pSFK immunoblot; assay type: cell-based; conditions: 4 hr; for inhibition of SFKs: 0.5 µM, Figure S3B; for inhibition of MEK, ERK, and SRC: 1 μM
NRAS mutant D04 cells = test: Cell proliferation assay; assay type: cell-based; conditions: CellTiter Glo
[4] = system: caspase 3 and PARP cleavage in patient #2 cells; test: PARP and caspase 3 immunoblot; assay type: cell-based; conditions: 1 μM; 4 hr
CRAF = CRAF (Homo sapiens, UniProt P04049, Y340D/Y341D); test: Z'-LYTE kinase assay; assay type: biochemical; conditions: Table 1
A375 cells = test: Colony formation; assay type: cell-based; conditions: 0.5 μM; 20 days
MEK1 = MEK1 (Homo sapiens, UniProt Q02750); test: Z'-LYTE kinase assay; assay type: biochemical
[5] = system: RAS mutant melanoma and colorectal cancer cells; test: Cell growth inhibition; assay type: cell-based; conditions: Figures 2A and 2B
[6] = system: NRAS mutant D04 xenograft; test: Xenograft growth; assay type: in vivo; conditions: 20 mg/kg oral daily; nude mice
COT = COT (Homo sapiens, UniProt P41279); test: Z'-LYTE kinase assay; assay type: biochemical
[7] = Pharmacokinetic studies, plasma, oral and intravenous dosing; assay type: in vivo, Balb/c mice; conditions: for bioavailability: Balb/c, mouse, plasma, po, 10 mg/kg; for area under the curve / plasma concentration: oral 10 mg/kg/day; for plasma concentration: 10 mg/kg/day
[8] = system: A375/R xenograft (PLX4720-resistant A375); test: Xenograft growth; assay type: in vivo, nude mice; conditions: 20 mg/kg oral daily; for body weight: A375/R xenograft study; for xenograft growth: nude mice
[9] = system: cell lines from patient #5 tumor; test: Cell proliferation assay; assay type: cell-based; conditions: CellTiter Glo
[10] = system: panel of 63 protein kinases; test: Efficacy against a panel of protein kinases; assay type: biochemical; conditions: 1 μM, percent activity compared to DMSO
PDX from patient #5 = test: PDX growth; assay type: in vivo, NSG mice; conditions: for body weight: 20 mg/kg daily gavage, patient #5 PDX study; for PDX sensitivity compared with PLX4720: PLX4720 45 mg/kg, CCT compounds 20 mg/kg daily gavage, NSG mice
[11] = system: melanoma and colorectal cancer cell lines that are mutant for BRAF; test: Cell growth inhibition; assay type: cell-based; conditions: Figures 2A and 2B
[12] = system: MEK in NRAS mutant D04 cells; test: pMEK/pERK immunoblot; assay type: cell-based; conditions: 24 hr
patient #4 PDX = test: PDX growth; assay type: in vivo, NSG mice; conditions: for body weight: 20 mg/kg daily gavage, patient #4 PDX study; for PDX sensitivity: PLX4720 45 mg/kg, CCT compounds 20 mg/kg daily gavage, NSG mice
[13] = system: patient #2 cell xenograft; test: Xenograft growth; assay type: in vivo, nude mice; conditions: for body weight: 20 mg/kg oral daily, patient #2 xenograft study; for xenograft growth: PLX4720 90 mg/kg, CCT compounds 20 mg/kg oral daily, nude mice
[14] = system: cancer cells that are wild-type for BRAF and NRAS; test: Cell growth inhibition; assay type: cell-based; conditions: Figure 2A, in general
[15] = Single and repeat dose tolerability / oral toxicity; assay type: in vivo, CD-1 mice; conditions: for weight loss: 30 mg/kg for 4 days
[16] = system: MEK and ERK in WM266.4 cells (BRAF mutant); test: pMEK/pERK immunoblot; assay type: cell-based; conditions: 24 hr
LCK = LCK (Homo sapiens, UniProt P06239); test: Z'-LYTE kinase assay; assay type: biochemical
patient #3 tumor cells = test: Cell proliferation assay; assay type: cell-based; conditions: CellTiter Glo
[17] = system: ERK activity in SK-Mel 23 cells; test: pERK immunoblot; assay type: cell-based; conditions: 1 μM; 4 hr
BRAF^V600E A375 cells = test: Cell proliferation assay; assay type: cell-based; conditions: CellTiter Glo
[18] = system: BRAF^V600E A375 xenograft; test: Xenograft growth; assay type: in vivo, nude mice
patient #3 PDX = test: PDX growth; assay type: in vivo, NSG mice; conditions: for body weight: 20 mg/kg daily gavage, patient #3 PDX study; for PDX growth: PLX4720 45 mg/kg, CCT compounds 20 mg/kg daily gavage, NSG mice
PDX from patient #13 = test: PDX growth; assay type: in vivo, NSG mice; conditions: 20 mg/kg daily gavage; patient #13 PDX study
SRC = SRC (Homo sapiens, UniProt P12931); test: Z'-LYTE kinase assay; assay type: biochemical
SK-Mel 23 cells = test: Cell growth inhibition; assay type: cell-based; conditions: Figure 2A
[19] = system: ERK and SRC in patient #3 PDX; test: pERK/pSFK immunoblot in PDX; assay type: in vivo, mice; conditions: PLX4720 45 mg/kg, CCT compounds 20 mg/kg daily gavage
BRAF = BRAF (Homo sapiens, UniProt P15056); test: Z'-LYTE kinase assay; assay type: biochemical
BRAF^T529N,V600E = test: BRAF kinase inhibition, gatekeeper mutant; assay type: biochemical
[20] = system: Ba/F3 cells transformed with BRAF^T529N,V600E; test: Growth of Ba/F3 cells; assay type: cell-based; conditions: [3H]-thymidine incorporation
A375/R cells = test: Cell proliferation assay; assay type: cell-based; conditions: CellTiter Glo
[21] = 25 mg/kg daily for 19 days, CD-1 mice
[22] = 20 mg/kg/day oral, 7 days/week, nude mice

Sequence of MEK1 (Q02750 whole entry): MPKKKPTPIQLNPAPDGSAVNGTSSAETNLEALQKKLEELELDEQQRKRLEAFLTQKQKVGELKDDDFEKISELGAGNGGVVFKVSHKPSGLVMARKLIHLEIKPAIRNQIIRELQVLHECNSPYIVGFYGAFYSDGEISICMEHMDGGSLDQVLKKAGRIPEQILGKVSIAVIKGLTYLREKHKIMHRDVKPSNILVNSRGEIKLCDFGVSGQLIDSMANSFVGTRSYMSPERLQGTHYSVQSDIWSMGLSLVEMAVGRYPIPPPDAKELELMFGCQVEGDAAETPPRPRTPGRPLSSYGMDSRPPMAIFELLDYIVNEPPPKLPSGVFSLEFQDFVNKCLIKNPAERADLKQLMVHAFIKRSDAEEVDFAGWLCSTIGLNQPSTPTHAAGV
Sequence of SRC (P12931 whole entry): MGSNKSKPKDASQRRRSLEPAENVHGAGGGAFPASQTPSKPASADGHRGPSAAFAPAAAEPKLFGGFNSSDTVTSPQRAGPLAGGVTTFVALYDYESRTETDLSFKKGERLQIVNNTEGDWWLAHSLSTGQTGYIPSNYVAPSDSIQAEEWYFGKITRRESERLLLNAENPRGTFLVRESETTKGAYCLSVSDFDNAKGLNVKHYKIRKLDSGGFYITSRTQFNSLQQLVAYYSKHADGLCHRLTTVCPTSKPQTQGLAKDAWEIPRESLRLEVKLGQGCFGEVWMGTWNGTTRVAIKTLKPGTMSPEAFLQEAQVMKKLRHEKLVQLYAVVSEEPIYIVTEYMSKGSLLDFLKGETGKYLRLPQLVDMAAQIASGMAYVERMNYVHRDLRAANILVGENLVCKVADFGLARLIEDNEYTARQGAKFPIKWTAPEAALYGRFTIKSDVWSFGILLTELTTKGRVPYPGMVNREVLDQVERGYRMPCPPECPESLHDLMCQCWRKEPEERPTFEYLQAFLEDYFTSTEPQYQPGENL
Sequence of CRAF (P04049 306-648 Y340D/Y341D limits assumed): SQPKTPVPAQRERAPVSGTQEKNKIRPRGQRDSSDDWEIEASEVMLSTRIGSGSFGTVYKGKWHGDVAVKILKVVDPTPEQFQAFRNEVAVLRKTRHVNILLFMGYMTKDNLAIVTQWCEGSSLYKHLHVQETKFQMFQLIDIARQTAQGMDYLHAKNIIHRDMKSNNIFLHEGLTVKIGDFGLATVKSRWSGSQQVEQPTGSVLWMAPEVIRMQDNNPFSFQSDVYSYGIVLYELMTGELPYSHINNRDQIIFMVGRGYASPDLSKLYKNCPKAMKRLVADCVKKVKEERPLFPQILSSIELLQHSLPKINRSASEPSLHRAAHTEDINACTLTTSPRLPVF
Sequence of COT (P41279 whole entry): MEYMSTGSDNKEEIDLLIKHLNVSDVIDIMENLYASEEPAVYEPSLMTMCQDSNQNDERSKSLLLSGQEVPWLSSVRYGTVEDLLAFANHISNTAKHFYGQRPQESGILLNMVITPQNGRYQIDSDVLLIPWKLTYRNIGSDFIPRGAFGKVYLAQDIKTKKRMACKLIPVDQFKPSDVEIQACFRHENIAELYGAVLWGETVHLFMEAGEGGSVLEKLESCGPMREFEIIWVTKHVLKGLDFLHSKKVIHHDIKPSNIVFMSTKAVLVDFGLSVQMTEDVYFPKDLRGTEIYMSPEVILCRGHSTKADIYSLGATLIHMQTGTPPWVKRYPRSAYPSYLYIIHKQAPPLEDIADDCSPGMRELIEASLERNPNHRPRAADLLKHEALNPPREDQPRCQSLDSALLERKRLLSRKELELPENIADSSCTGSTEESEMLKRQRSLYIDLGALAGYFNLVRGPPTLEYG
Sequence of LCK (P06239 whole entry): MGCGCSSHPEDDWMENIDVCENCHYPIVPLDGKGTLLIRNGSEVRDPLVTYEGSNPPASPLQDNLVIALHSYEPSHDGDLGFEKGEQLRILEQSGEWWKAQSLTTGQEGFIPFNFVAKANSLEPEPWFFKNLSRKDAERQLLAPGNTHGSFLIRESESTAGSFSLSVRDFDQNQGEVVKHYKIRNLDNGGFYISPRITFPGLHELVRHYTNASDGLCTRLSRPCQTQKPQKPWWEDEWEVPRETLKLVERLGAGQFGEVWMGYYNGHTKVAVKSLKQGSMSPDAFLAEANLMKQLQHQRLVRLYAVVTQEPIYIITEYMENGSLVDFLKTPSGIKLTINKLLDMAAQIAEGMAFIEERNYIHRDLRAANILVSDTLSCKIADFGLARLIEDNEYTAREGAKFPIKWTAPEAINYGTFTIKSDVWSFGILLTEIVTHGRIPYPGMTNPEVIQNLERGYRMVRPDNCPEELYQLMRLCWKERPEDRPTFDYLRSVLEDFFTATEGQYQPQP
Sequence of BRAF (P15056 whole entry): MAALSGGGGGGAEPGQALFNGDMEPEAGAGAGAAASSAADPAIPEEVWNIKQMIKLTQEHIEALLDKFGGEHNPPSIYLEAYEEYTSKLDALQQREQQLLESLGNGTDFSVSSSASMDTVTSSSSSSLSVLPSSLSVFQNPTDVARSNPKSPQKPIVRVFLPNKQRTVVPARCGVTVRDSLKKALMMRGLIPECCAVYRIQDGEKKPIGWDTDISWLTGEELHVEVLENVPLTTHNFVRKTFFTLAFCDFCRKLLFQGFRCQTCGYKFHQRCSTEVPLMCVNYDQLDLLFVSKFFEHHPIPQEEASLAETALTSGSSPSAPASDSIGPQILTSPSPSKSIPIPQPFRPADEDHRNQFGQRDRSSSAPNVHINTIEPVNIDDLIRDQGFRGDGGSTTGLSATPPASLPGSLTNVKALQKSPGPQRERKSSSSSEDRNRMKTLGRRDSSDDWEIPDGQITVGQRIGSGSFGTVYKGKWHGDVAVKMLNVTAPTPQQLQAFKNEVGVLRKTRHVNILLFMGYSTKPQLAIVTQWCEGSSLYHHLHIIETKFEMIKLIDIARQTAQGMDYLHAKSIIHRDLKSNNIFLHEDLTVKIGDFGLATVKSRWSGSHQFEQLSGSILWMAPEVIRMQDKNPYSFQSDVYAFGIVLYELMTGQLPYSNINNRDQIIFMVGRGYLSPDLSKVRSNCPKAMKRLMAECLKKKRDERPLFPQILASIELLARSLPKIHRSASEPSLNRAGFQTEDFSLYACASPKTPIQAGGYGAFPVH

CC(C)(C)c1cc(NC(=O)Nc2ccc(Oc3ccnc4[nH]c(=O)cnc34)cc2F)n(-c2ccccc2)n1 [CCT196969]
cell line sensitivity ([1]; CellTiter Glo): sensitive
growth inhibition compared with PLX4720, ARQ736, RAF265, MLN2480 ([1]; CellTiter Glo, Figure S3C): more potently than any of the other inhibitors
PDX sensitivity [2]: remains sensitive
inhibition of SFKs [3]: also inhibit SFKs
inhibition of MEK, ERK, and SRC [3]: inhibit MEK, ERK, and SRC
NRAS mutant cell growth inhibition, compared with PLX4720 (NRAS mutant D04 cells): more efficiently than does PLX4720
caspase 3 and PARP cleavage (apoptosis) [4]: induce caspase 3 and PARP cleavage
pIC50 (CRAF): 8.00
colony formation under continual exposure (A375 cells): no cells are able to grow
pIC50 (MEK1): < 5.00
activity against RAS mutant cells [5]: also active
xenograft growth [6]: inhibit the growth
pIC50 (COT): < 5.00
bioavailability [7]: ~55%
area under the curve [7]: ~416,000 nM.hr
plasma concentration ([7]; at 24 hr): ~1 µM
body weight [8]: without causing any body weight loss
xenograft growth [8]: inhibit the growth
cell sensitivity compared with PLX4720 [9]: more sensitive
kinases inhibited in a panel of protein kinases [10]: only inhibit SRC, LCK, and the p38 mitogen-activated protein kinases (MAPKs)
body weight (PDX from patient #5): did not observe any loss in body weight
PDX sensitivity compared with PLX4720 (PDX from patient #5): more sensitive
activity against BRAF mutant cell lines [11]: active
effect on MEK in NRAS mutant cells [12]: inhibit rather than activate MEK
body weight (patient #4 PDX): do not cause body weight loss
PDX sensitivity (patient #4 PDX): sensitive
body weight [13]: without causing any body weight loss
xenograft growth [13]: complete inhibition
activity against BRAF and NRAS wild-type cancer cells [14]: not active
clinical signs and body weight ([15]; 20 mg/kg daily × 24 days, CD-1 mice): no clinical signs or body weight loss
body weight and food intake [15, 21]: did not show any body weight loss or reduction in food intake
clinical signs [15, 21]: tachypnoea with decreased activity and excitation
mortality [15, 21]: did not observe any mortality
microscopical examination of tissues ([15]; 25 mg/kg daily for 19 days, end of the study): did not identify any treatment-related changes
weight loss ([15]; oral gavage): do not cause significant weight loss
clinical signs / adverse effects ([15]; single dose 20 mg/kg, oral gavage, CD-1 mice): no observed adverse effects
body weight ([15]; single dose 40 mg/kg, oral gavage, CD-1 mice): no effect on body weight
clinical signs ([15]; single dose 40 mg/kg, oral gavage, CD-1 mice, 1 hr after dosing): slight, transient tachypnoea
inhibition of MEK and ERK [16]: inhibit MEK and ERK
pIC50 (LCK): 7.85
cell sensitivity (patient #3 tumor cells): sensitive
ERK activity in SK-Mel 23 cells [17]: sensitive
growth inhibition of BRAF mutant melanoma cells, compared with PLX4720 (BRAF^V600E A375 cells): more potently than PLX4720
xenograft growth ([18]; 10 mg/kg/day, data not shown): also effective
xenograft growth [18, 22]: tumor regression
body weight (patient #3 PDX): without causing body weight loss
PDX growth (patient #3 PDX): tumor regression
body weight (PDX from patient #13): no body weight loss was observed
pIC50 (SRC; IC50 SRC, Table 1): 7.52
sensitivity of SK-Mel 23 cells (SK-Mel 23 cells): sensitive
inhibition of ERK and SRC in PDX [19]: inhibit ERK and SRC

CSc1cc(Oc2ccnc3[nH]c(=O)cnc23)ccc1NC(=O)Nc1cc(C(C)(C)C)nn1-c1ccccc1 [CCT241161]
cell line sensitivity ([1]; CellTiter Glo): sensitive
PDX sensitivity [2]: remains sensitive
inhibition of SFKs [3]: also inhibit SFKs
inhibition of MEK, ERK, and SRC [3]: inhibit MEK, ERK, and SRC
NRAS mutant cell growth inhibition, compared with PLX4720 (NRAS mutant D04 cells): more efficiently than does PLX4720
caspase 3 and PARP cleavage (apoptosis) [4]: induce caspase 3 and PARP cleavage
pIC50 (CRAF): 8.22
colony formation under continual exposure (A375 cells): no cells are able to grow
pIC50 (MEK1): < 5.00
activity against RAS mutant cells [5]: also active
xenograft growth [6]: inhibit the growth
pIC50 (COT): < 5.00
pIC50 (BRAF): 6.60
bioavailability [7]: ~55%
area under the curve [7]: ~275,000 nM.hr
plasma concentration ([7]; at 14 hr): ~1 µM
body weight [8]: without causing any body weight loss
xenograft growth [8]: inhibit the growth
cell sensitivity compared with PLX4720 [9]: more sensitive
kinases inhibited in a panel of protein kinases [10]: only inhibit SRC, LCK, and the p38 mitogen-activated protein kinases (MAPKs)
body weight (PDX from patient #5): did not observe any loss in body weight
PDX sensitivity compared with PLX4720 (PDX from patient #5): more sensitive
activity against BRAF mutant cell lines [11]: active
fold less active against BRAF^T529N,V600E than BRAF^V600E (BRAF^T529N,V600E): 42 fold
effect on MEK in NRAS mutant cells [12]: inhibit rather than activate MEK
body weight (patient #4 PDX): do not cause body weight loss
PDX sensitivity (patient #4 PDX): sensitive
body weight [13]: without causing any body weight loss
xenograft growth [13]: complete inhibition
activity against BRAF and NRAS wild-type cancer cells [14]: not active
weight loss ([15]; oral gavage): do not cause significant weight loss
inhibition of MEK and ERK [16]: inhibit MEK and ERK
pIC50 (LCK): 8.52
cell sensitivity (patient #3 tumor cells): sensitive
fold less sensitive, Ba/F3 cells transformed with BRAF^T529N,V600E vs BRAF^V600E [20]: 19 fold
ERK activity in SK-Mel 23 cells [17]: sensitive
growth inhibition of BRAF mutant melanoma cells, compared with PLX4720 (BRAF^V600E A375 cells): more potently than PLX4720
xenograft growth [18, 22]: tumor regression
body weight (patient #3 PDX): without causing body weight loss
PDX growth (patient #3 PDX): tumor regression
body weight (PDX from patient #13): no body weight loss was observed
pIC50 (SRC; inhibits SRC at): 7.82
sensitivity of SK-Mel 23 cells (SK-Mel 23 cells): sensitive
sensitivity of PLX4720-resistant A375 cells (A375/R cells): still sensitive
inhibition of ERK and SRC in PDX [19]: inhibit ERK and SRC

CCCS(=O)(=O)Nc1ccc(F)c(C(=O)c2c[nH]c3ncc(Cl)cc23)c1F [PLX4720, reference compound]
cell line sensitivity ([1]; CellTiter Glo): resistant
PDX sensitivity [2]: resistance
inhibition of MEK, ERK, and SRC [3]: does not
caspase 3 and PARP cleavage (apoptosis) [4]: does not
PDX sensitivity (patient #4 PDX): resistant
xenograft growth [13]: resistant
cell sensitivity (patient #3 tumor cells): not inhibited
PDX growth (patient #3 PDX): neither does it inhibit the growth
inhibition of ERK and SRC in PDX [19]: does not inhibit ERK or SRC

C[S+]([O-])c1ccc(-c2nc(-c3ccncc3)c(-c3ccc(F)cc3)[nH]2)cc1 (stereo not drawn) [SB203580]
cooperation with the pan-RAF inhibitors RAF265 or MLN2480 ([1]; 10 µM SB203580 in combination, Figure S3E): does not cooperate

COc1cc2ncnc(Nc3ccc(Oc4ccccc4)cc3)c2cc1OC [SRC inhibitor 1]
effect in combination with TAK632 ([1]; 40 µM SRC Inhibitor 1 with TAK632, Figure S3D): increases the activity of the pan-RAF inhibitor TAK632
activity alone ([1]; CellTiter Glo, Figure S3D): inactive alone
